# pEC50, pIC50: −log10 of the molar value.
# Tests used:
# [1] = Inhibition of SARS coronavirus papain-like protease expressed in Escherichia coli; design: species or system Severe acute respiratory syndrome-related coronavirus
# SARS-CoV = assay: Antiviral activity against SARS coronavirus infected in african green monkey Vero E6 cells assessed as inhibition of viral replication after 48 hrs by luminescence assay; type: functional, organism-based, Severe acute respiratory syndrome-related coronavirus; details: for pEC50: Severe acute respiratory syndrome-related coronavirus, Vero, 48 h, read-out: EC50
SMILES,pIC50 [1],pEC50 (SARS-CoV),EC50 (SARS-CoV; vero)
CC(C)(c1cccc2ccccc12)N1CCC(C(=O)NCc2ccc3c(c2)OCO3)CC1,< 3.70,,
COc1ccccc1CNC(=O)C1CCN([C@H](C)c2cccc3ccccc23)CC1,5.92,4.94,
C[C@@H](c1cccc2ccccc12)N1CCC(C(=O)NCc2ccc3c(c2)OCO3)CC1,6.25,5.04,
O=C(NCc1ccc2c(c1)OCO2)C1CCN(Cc2ccc3ccccc3c2)CC1,4.00,,
O=C(NCc1ccc2c(c1)OCO2)C1CCN(Cc2cccc3ccccc23)CC1,4.35,,
COc1cccc(CNC(=O)C2CCN([C@H](C)c3cccc4ccccc34)CC2)c1,6.47,5.01,
COc1ccc(CNC(=O)C2CCN([C@H](C)c3cccc4ccccc34)CC2)cc1,6.47,4.99,
C[C@H](c1cccc2ccccc12)N1CCC(C(=O)NCc2ccc3c(c2)OCO3)CC1,,5.04,
COc1ccc(CNC(=O)C2CCN(Cc3cccc4ccccc34)CC2)cc1,4.23,,Not Active
COc1ccccc1CNC(=O)C1CCN(Cc2cccc3ccccc23)CC1,3.94,,
COc1cccc(CNC(=O)C2CCN(Cc3cccc4ccccc34)CC2)c1,4.52,,
COc1cccc(CNC(=O)C2CCN([C@@H](C)c3ccc4ccccc4c3)CC2)c1,5.24,< 4.60,
COc1cccc(CNC(=O)C2CCN([C@H](C)c3ccc4ccccc4c3)CC2)c1,4.88,,
COc1ccccc1CNC(=O)C1CCN([C@H](C)c2ccc3ccccc3c2)CC1,4.46,,
COc1ccc(CNC(=O)C2CCN(C(C)c3ccc4ccccc4c3)CC2)cc1 (racemic),< 4.00,,

# Source: ChEMBL document CHEMBL1177723, “Severe acute respiratory syndrome coronavirus papain-like novel protease inhibitors: design, synthesis, protein-ligand X-ray structure and biological evaluation” (J Med Chem, 2010)
